Laboratory results as given in patent US20230310573A1, “Stabilized Vaccine Compositions” (priority 2020, published 2023).

Assays:
[1] = molecular target: T1, UFV170091 (HA of B/Massachussetts/2/12) (Influenza B virus, UniProt P03460); assay: Melting temperature (Tm50) of influenza B HA trimer by DSF; format: physicochemical; details: 1:6 HA trimer:compound ratio
T1 construct: Ectodomain of wild type HA of B/Massachussetts/2/12 fused to a foldon domain at the C-terminus; His-tag (C); made in house; host or cells: ExpiCHO

[2] = molecular target: T2, UFV180300 (HA of B/Colorado/06/2017) (Influenza B virus, UniProt P03460); assay: as above; format: physicochemical; details: 1:6 HA trimer:compound ratio
T2 construct: SortA (sortase) tag (C); His-tag (C); made in house; host or cells: ExpiCHO

[3] = molecular target: UFV180933 (HA of B/Brisbane/60/08) (Influenza B virus, UniProt P03460); format: cell-based; details: 1:90 HA trimer:compound ratio
[4] = molecular target: ectodomain of H1N1 A/Brisbane/59/2007 (SEQ ID NO: 7) (Influenza A virus, UniProt P03452); assay: Heat stress of influenza A HA ectodomain, trimer and monomer content by analytical SEC; format: physicochemical; details: 6 weeks at 40 degree Celsius; 1:6 HA trimer:compound ratio

c1ccc(CN2CCC(Nc3ccccc3)(c3ccccc3)CC2)cc1 [XXVII, 1-benzyl-N,4-diphenyl-piperidin-4-amine]
increase of the Tm (DSF) [1]: 0.5 °C | increase of the Tm (DSF) [2]: 1 °C | monomer and trimer content in supernatant (SEC) [3]: hardly monomer and mostly trimer

N#CCCCn1c(CN2C(=O)C3(CN(C(=O)C4(O)CC4)C3)c3ccccc32)cc2cc(Cl)ccc21 [Compound XV, 4-[5-chloro-2-[[1-(1-hydroxycyclopropanecarbonyl)-2′-oxo-spiro[azetidine-3,3′-indoline]-1′-yl]methyl]indol-1-yl]butanenitrile]
trimer content after heat stress (SEC) [4]: preserved the trimer content
